{"source": "patent US20080107625A1", "about": "“Inhibitors of Hepatitis C Virus” (Bristol-Myers Squibb Company, priority 2006, published 2008)", "key": {"[1]": {"biological_target": "T1, porcine pancreatic elastase (PPE) (Sus scrofa, UniProt P00772)", "T1 construct": "purchased Sigma or EMDbiosciences", "T1 sequence (P00772 27-266)": "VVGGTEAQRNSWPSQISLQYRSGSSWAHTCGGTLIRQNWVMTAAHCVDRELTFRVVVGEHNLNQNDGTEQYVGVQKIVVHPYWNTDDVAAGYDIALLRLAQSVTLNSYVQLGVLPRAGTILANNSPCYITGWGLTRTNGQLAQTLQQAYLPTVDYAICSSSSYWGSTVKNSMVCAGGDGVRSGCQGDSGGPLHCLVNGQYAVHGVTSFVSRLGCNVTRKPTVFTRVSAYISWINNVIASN", "test": "Specificity assay, pancreatic elastase", "format": "biochemical", "experimental": "The specificities of compounds of the present disclosure were determined against a variety of serine proteases: human neutrophil elastase (HNE), porcine pancreatic elastase (PPE) and human pancreatic chymotrypsin and one cysteine protease: human liver cathepsin B. In all cases, a 96-well plate format protocol using colorimetric p-nitroaniline (pNA) substrate or fluorometric Amino-Methyl-Coumarin (AMC) substrate, specific for each enzyme was used as described previously (PCT Patent Application No. WO 00/09543) with some modifications. All enzymes were purchased from Sigma or EMDbiosciences while the substrates were from Bachem.\nEach pNA assay included a 2 h enzyme-inhibitor pre-incubation at room temperature followed by addition of substrate and hydrolysis to ˜15% conversion as measured on a Spectramax Pro microplate reader. The cathepsin B assay was initiated by adding substrate to a 10 min enzyme-inhibitor pre-incubation at room temperature, and the assay plate measured immediately using the Cytofluor Series 4000. Compound concentrations varied from 100 to 0.4 μM depending on their potency.\n50 mM Tris(hydroxymethyl)aminomethane hydrochloride (Tris-HCl) pH 8, 0.5 M Sodium Sulfate (Na2SO4), 50 mM NaCl, 0.1 mM EDTA, 3% DMSO, 0.01% Tween-20 with: […]\nThe percentage of inhibition was calculated using the formula: [1−((UVinh−UVblank)/(UVctl−UVblank))]×100 […]"}, "[2]": {"system": "HCV replicon in HUH-7 cells", "test": "HCV replicon FRET assay", "format": "cell-based, HCV strain 1b", "conditions": "Hepatitis C virus, 96 h, 4 days", "excerpt": "An HCV replicon whole cell system was established as described by Lohmann V, Korner F, Koch J, Herian U, Theilmann L, Bartenschlager R., Science 285(5424): 110-3 (1999). This system enabled us to evaluate the effects of our HCV Protease compounds on HCV RNA replication. Briefly, using the HCV strain 1b sequence described in the Lohmann paper (Assession number: AJ238799), an HCV cDNA was synthesized by Operon Technologies, Inc. (Alameda, Calif.), and the full-length replicon was then assembled in plasmid pGem9zf(+) (Promega, Madison, Wis.) using standard molecular biology techniques. […]\nThe HCV replicon FRET assay was developed to monitor the inhibitory effects of compounds described in the disclosure on HCV viral replication. […] After 4 days, cells were first assessed for cytotoxicity using alamar Blue (Trek Diagnostic Systems) for a CC50 reading. The toxicity of compound (CC50) was determined by adding 1/10th volume of alamar Blue to the media incubating the cells. After 4 hours, the fluorescence signal from each well was read, with an excitation wavelength at 530 nm and an emission wavelength of 580 nm, using the Cytofluor Series 4000 (Perspective Biosystems). […]"}}, "data": [{"smiles": "CC(C)(C)OC(=O)N[C@H]1CN(C2CC2)CCC/C=C\\C2C[C@@]2(C(=O)NS(=O)(=O)C2CC2)NC(=O)[C@@H]2C[C@@H](Oc3ccccn3)CN2C1=O", "note": "(some centres unmarked) [Compound 1]", "values": [{"measurement": "IC50", "setting": "[1]", "value": "> 100", "unit": "µM"}, {"measurement": "EC50", "setting": "[2]", "value": 1.09, "unit": "µM"}]}]}
